Experimental data published in paper PMC6152024 (Molecules : A Journal of Synthetic Chemistry and Natural …, 2017).

Key:
Assay type in all cases: in vitro ADME
CYP3A [1] = target: T1, CYP3A (Homo sapiens, UniProt P08684); test: IC50 shift assay (time- and NADPH-dependent inhibition) in HLMs
Procedure: A NADPH regenerating system (NADPH-gs, containing 10 mM glucose-6-phosphate, 5 mM magnesium chloride, 1 U/mL glucose-6-phosphate dehydrogenase and 1 mM NADP+) was constructed. The metabolite of Tes, 6OH-Tes, was assayed by UHPLC-MS method (I) for CYP3A activity assessment.
In a final volume of 100 µL, Gom A at different concentrations (0, 0.08, 0.31, 0.63, 2.5, 10 and 40 µM) was preincubated with 10 × HLMs (5 mg/mL) at 37 °C with NADPH-gs in PBS (0.1 M). After 30 min, the incubation mixture was diluted 10 folds using PBS (0.1 M). Then 100 µL of the diluted mixture was added into a secondary incubation containing NADPH-gs and 25 µM Tes. The final volume was 200 µL. After 10 min incubation, the reaction was terminated by the addition of 200 µL ice-cold acetonitrile containing 18 ng/mL phenacetin (IS-I). […]
Pharmacokinetic profiles of CTX and DCCTX were estimated by one-compartmental model using the DAS 2.0 software ([…], Medical College of Wannan, Anhui, China). Data were expressed as mean ± SD. […] IC50 values of Gom A were determined by nonlinear regression analysis using GraphPad Prism 5.01 software (GraphPad Software Inc., San Diego, CA, USA). The mode of inhibition was verified by Lineweaver-Burk plots of the enzyme kinetic data, and the KI value was determined by linear regression analysis with GraphPad Prism 5.01 (GraphPad Software Inc.). […]

CYP3A [2] = target: T1, CYP3A; test: Effect on DCCTX production from CTX in HLMs; details: 10 µM inhibitor, HLMs 0.5 mg/mL, CTX substrate; 60 min
Procedure: The effect of Gom A on CYP3A metabolism of CTX in HLMs was investigated. […] Considering the difficulty for direct CAA determination, DCCTX was assayed to reflect CAA production using an established UHPLC-MS method (II).
The CYP3A inhibitor ketoconazole (Keto) was used as positive control. Briefly, various concentrations of Gom A and Keto (0.01, 0.1, 1 and 10 µM) were incubated with HLMs (0.5 mg/mL) in PBS (0.1 M) containing NADPH-gs and 100 µM CTX in a total volume of 200 µL. After a 5 min warm up period, reactions were initiated with addition of NADPH-gs. Incubations were conducted at 37 °C for 60 min and then terminated by the addition of 200 µL ice-cold acetonitrile containing 6 ng/mL of TNZ (IS-II).

CYP3A [3] = target: T1, CYP3A; test: KI and kinact assay (CYP3A inactivation) in HLMs; design: tissue Meilun Biotechnology Co., Ltd. (Dalian, China) lot No. M0202A; host or cells: pooled (mixed) male human liver microsomes; details: preincubation 0-30 min with NADPH-gs, 100 µM Tes
Procedure: The following steps were similar as described in the IC50 shift assays. […] All the incubations were performed in triplicate.
Pharmacokinetic profiles of CTX and DCCTX were estimated by one-compartmental model using the DAS 2.0 software ([…], Medical College of Wannan, Anhui, China). Data were expressed as mean ± SD. Comparisons between two groups were performed using one-way ANOVA followed by LSD test in the condition of variance homogeneity or Dunnett T3 test in the case of variance heterogeneity. The differences were considered to be statistically significant at * p < 0.05 and ** p < 0.01. IC50 values of Gom A were determined by nonlinear regression analysis using GraphPad Prism 5.01 software (GraphPad Software Inc., San Diego, CA, USA). The mode of inhibition was verified by Lineweaver-Burk plots of the enzyme kinetic data, and the KI value was determined by linear regression analysis with GraphPad Prism 5.01 (GraphPad Software Inc.). The initial inactivation rate constant (kobs, min^−1) was estimated from the initial slope of the linear regression line at each concentration of Gom A. Then the values of kobs were plotted versus Gom A concentration, and the maximal inactivation rate constant kinact, along with the concentration of inactivator (at which the rate of the inactivation is half maiximal) KI values, were determined using Equation (1). […]

T1 sequence (P08684 2-503): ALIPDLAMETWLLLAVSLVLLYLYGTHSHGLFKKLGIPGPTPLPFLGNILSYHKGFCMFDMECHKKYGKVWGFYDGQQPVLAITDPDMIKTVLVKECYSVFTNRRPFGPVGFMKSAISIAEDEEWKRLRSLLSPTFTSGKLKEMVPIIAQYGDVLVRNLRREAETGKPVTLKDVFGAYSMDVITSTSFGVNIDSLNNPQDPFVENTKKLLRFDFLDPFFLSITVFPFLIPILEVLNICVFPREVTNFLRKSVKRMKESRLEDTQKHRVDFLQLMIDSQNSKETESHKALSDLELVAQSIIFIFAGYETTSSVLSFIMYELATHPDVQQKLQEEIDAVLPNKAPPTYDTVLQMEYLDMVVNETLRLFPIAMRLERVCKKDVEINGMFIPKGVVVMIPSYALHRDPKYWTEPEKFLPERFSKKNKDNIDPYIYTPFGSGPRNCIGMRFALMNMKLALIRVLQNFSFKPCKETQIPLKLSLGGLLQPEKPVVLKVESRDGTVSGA

Gomisin A [Gom A]
NADPH dependence of CYP3A inhibition (CYP3A [1]; Gom A 1 µM preincubated 30 min with vs without NADPH-gs, data not shown): more potent when Gom A was preincubated with NADPH
shift in IC50 (CYP3A [1]; with vs without 30 min preincubation): 1.8 fold
DCCTX production, % of that in control group (CYP3A [2]): 15%
kinact (CYP3A [3]): 1.96 min⁻¹
